This is an account of results in patent US5997843A, “Radiometal complexes that localise in hypoxic tissue” (priority 1993, dated 1999).

Entries after “also recorded” stand apart in the source; their conditions may differ.

One data set has as its system xanthine oxidase. Put plainly: Xanthine oxidase (XOD) with hypoxanthine in PBS reduction test. In kind it is biochemical. To be noted: ^99m Tc complex, HPLC. Here is the method: b) Xanthine Oxidase (XOD) with Hypoxanthine in Phosphate Buffered Saline (PBS)
Xanthine oxidase (16 mg) was weighed into a P6 vial. the vial was capped, oversealed and purged with nitrogen gas. Nitrogen purged phosphate buffered saline (1 ml) was added to the vial containing the xanthine oxidase.
Hypoxanthine (4.1 mg) was weighed into a P6 vial. The vial was capped, oversealed and purged with nitrogen gas. To the hypoxanthine was added (1 ml) of the xanthine oxidase in PBS.
1 ml of the ligand solution or 1 ml of the ^99m Tc-complex preparation was then added to the reducing mixture, shaken, and aliquots were taken at 20 minute time intervals.

The nature of a further data set: Biodistribution in rats. The data set is classed as in vivo, male rats. To be noted: i.v. Here is the method: Biodistribution in Rats--Methods
The quantitative biodistribution was studied in male rats at 2 minutes, 1 hour and 4 hours post-injection
Rats under light anaesthesia were injected intravenously with 0.1 ml of test agent. Three rats were sacrificed (anaesthesia followed by exsanguination) at 2, 60 and 240 minutes, post-injection. The percentage of the injected dose in the excreta and organs and tissues was determined by dissection and assay for radioactivity in an automatic gamma counter.

Data set [1] concerns isolated (Langendorff) rat hearts. Put plainly: Isolated perfused heart (Langendorff), hypoxic vs oxic uptake/retention. To be noted: for Hypoxic/Oxic Ratio (H/O): ^99m Tc complex (or ^123 I-IAZA), 20 min infusion, 15 min washout; for Normalised Hypoxic Retention: relative to ^3 H-misonidazole activity. Here is the method: A 15-minute cold buffer washout period follows. y activity in the heart is monitored using a collimated NaI probe detector positioned over the heart.
Activity in hearts, relative to perfusate activity, is calculated for each nuclide and data evaluated for each compound for activity in hypoxic and oxic hearts (hypoxic:oxic ratio) and also relative to the 3 H-misonidazole activity (normalised retention) using Formula 1. [formula] Results

The mark [2] stands for this setting: 2 min post-injection, ^99m Tc complex.
Setting [3] is: 240 min post-injection (third printed value).
Setting [4] is: second of two values, 60 or 240 min not assignable.

Consider `CC(=NO)C(C)(C)NCCCCNC(C)(C)C(Cn1ccnc1[N+](=O)[O-])=NO` [Compound II], for which the “Xanthine oxidase reduction test result” value with xanthine oxidase was “positive”. In “Biodistribution in rats” (2 min post-injection), this molecule gave a Bladder/Urine of 1.0 percent injected dose, a Blood of 8.4 percent injected dose, a Gut of 13.4 percent injected dose and a Kidney of 13.1 percent injected dose. The molecule also returned a Liver in “Biodistribution in rats” (2 min post-injection) of 15.5 percent injected dose. The same molecule yielded a Muscle in “Biodistribution in rats” (setting [2]) of 26.1 percent injected dose. Besides, in “Biodistribution in rats” (60 min post-injection), the Gut came to 40.0 percent injected dose and the Muscle was determined as 6.6 percent injected dose. The molecule also came in with a Muscle in the data set “Biodistribution in rats” (setting [3]) of 3.1 percent injected dose. This molecule had a Gut in “Biodistribution in rats” (240 min post-injection) of 49.9 percent injected dose. In “Biodistribution in rats” (setting [4]), this molecule yielded a Blood of 1.3 percent injected dose, a Kidney of 1.4 percent injected dose and a Liver of 11.4 percent injected dose. In addition, in data set [1], the “hypoxia selectivity / hypoxic/oxic ratio / hypoxic retention (in words)” value was “significantly greater than seen for other ^99m Tc test agents and ^123 I-IAZA; also recorded: greater than that for ^99m Tc-PnAO; also recorded: at least equivalent to ^123 I-IAZA”; the “Hypoxic/Oxic Ratio (H/O)” value is 28; the “Normalised Hypoxic Retention” value is on record as 5.1. Besides, the “normalised hypoxic retention, times greater than ^3 H misonidazole” value in data set [1] (isolated buffer perfused rat heart model) is “at least 2 times”.
As to `CC(=NO)C(C)(C)NCCCCCNC(C)(C)C(Cn1ccnc1[N+](=O)[O-])=NO` [Compound IV, 3,3,11,11-tetramethyl-1-(2-nitro-1H-imidazo-1-yl)-4,10-diazatridecan-2,12-dione dioxime], the “Xanthine oxidase reduction test result” value with xanthine oxidase is “positive”. Also, in the data set “Biodistribution in rats” (2 min post-injection), the Bladder/Urine is 0.4 percent injected dose, the Blood came out at 10.6 percent injected dose, the Gut was found to be 13.7 percent injected dose and the Kidney came out at 12.1 percent injected dose. For the same molecule, the Liver in “Biodistribution in rats” (2 min post-injection) is 15.6 percent injected dose. The Muscle in “Biodistribution in rats” (setting [2]) stood at 24.3 percent injected dose. In “Biodistribution in rats” (60 min post-injection), this molecule gave a Gut of 50.9 percent injected dose and a Muscle of 8.2 percent injected dose. The molecule also gave a Muscle in “Biodistribution in rats” (setting [3]) of 2.0 percent injected dose. In “Biodistribution in rats” (240 min post-injection), the Gut was determined as 60.0 percent injected dose. In the data set “Biodistribution in rats” (setting [4]), the Blood turned out to be 1.0 percent injected dose, the Kidney is given as 2.7 percent injected dose and the Liver worked out at 2.5 percent injected dose. Further, in data set [1], the “hypoxia selectivity / hypoxic/oxic ratio / hypoxic retention (in words)” value is reported as “very little hypoxia selectivity”, the “Hypoxic/Oxic Ratio (H/O)” value is 2.4 and the “Normalised Hypoxic Retention” value was determined as 0.49.
In “Biodistribution in rats” (2 min post-injection), `CC(C)(NCCCCNC(C)(C)C(Cn1ccnc1[N+](=O)[O-])=NO)C(Cn1ccnc1[N+](=O)[O-])=NO` [Compound XI, 1,12-bis(2-Nitro-1-imidazolyl)-4,9-diaza-3,3,10,10-tetramethyldodecan-2,11-dione dioxime] came in with a Bladder/Urine of 0.2 percent injected dose, a Blood of 10.8 percent injected dose, a Gut of 18.2 percent injected dose and a Kidney of 8.6 percent injected dose. Besides, in “Biodistribution in rats” (2 min post-injection), the Liver was found to be 21.7 percent injected dose. The Muscle in “Biodistribution in rats” (setting [2]) was determined as 18.7 percent injected dose. In “Biodistribution in rats” (60 min post-injection), this molecule displayed a Gut of 56.7 percent injected dose and a Muscle of 5.6 percent injected dose. Besides, the Muscle in “Biodistribution in rats” (setting [3]) is given as 3.1 percent injected dose. The molecule further came in with a Gut in the data set “Biodistribution in rats” (240 min post-injection) of 66.0 percent injected dose. In the data set “Biodistribution in rats” (setting [4]), the Blood was 1.4 percent injected dose, the Kidney was 2.1 percent injected dose and the Liver is 7.3 percent injected dose. In addition, in data set [1], the “hypoxia selectivity / hypoxic/oxic ratio / hypoxic retention (in words)” value is “further reduces the hypoxia selectivity”, the “Hypoxic/Oxic Ratio (H/O)” value turned out to be 3.4 and the “Normalised Hypoxic Retention” value is on record as 0.98.
In the data set “Biodistribution in rats” (2 min post-injection), `CC(C)(C=NO)NCCCCNC(C)(C)C(Cn1ccnc1[N+](=O)[O-])=NO` [Compound XII, 3,8-diaza-10-hydroxyimino-11-(2-nitro-1-imidazolyl)-2,2,9,9-tetramethylundecanal oxime] yielded a Bladder/Urine of 1.2 percent injected dose, a Blood of 10.8 percent injected dose, a Gut of 13.4 percent injected dose and a Kidney of 13.3 percent injected dose. The molecule further showed a Liver in the data set “Biodistribution in rats” (2 min post-injection) of 16.0 percent injected dose. This molecule came in with a Muscle in the data set “Biodistribution in rats” (setting [2]) of 23.9 percent injected dose. In “Biodistribution in rats” (60 min post-injection), this molecule yielded a Gut of 31.9 percent injected dose and a Muscle of 8.2 percent injected dose. The Muscle in “Biodistribution in rats” (setting [3]) came to 5.2 percent injected dose. The molecule further showed a Gut in “Biodistribution in rats” (240 min post-injection) of 35.5 percent injected dose. Besides, in “Biodistribution in rats” (setting [4]), the Blood was 2.0 percent injected dose, the Kidney is 5.5 percent injected dose and the Liver is 11.0 percent injected dose. Also, in data set [1], the “hypoxia selectivity / hypoxic/oxic ratio / hypoxic retention (in words)” value was “little or no effect on both the hypoxic/oxic ratio and normalised hypoxic retention”; the “Hypoxic/Oxic Ratio (H/O)” value is 9.5; the “Normalised Hypoxic Retention” value was found to be 1.9.
`COCC(=NO)C(C)(COC)NCCCCNC(C)(COC)C(COC)=NO` (stereo not shown) [Compound XV, 3,10-Bis(methoxymethyl)-4,9-diaza-1,12-dimethoxy-3,10-dimethyldodecan-2,11-dione dioxime]: in the data set “Biodistribution in rats” (2 min post-injection), the Bladder/Urine turned out to be 1.2 percent injected dose, the Blood stood at 12.8 percent injected dose, the Gut amounted to 9.5 percent injected dose and the Kidney amounted to 14.2 percent injected dose. Further, in the data set “Biodistribution in rats” (2 min post-injection), the Liver came out at 10.2 percent injected dose. Besides, in the data set “Biodistribution in rats” (setting [2]), the Muscle came to 27.4 percent injected dose. Also, in “Biodistribution in rats” (60 min post-injection), the Gut was 21.3 percent injected dose and the Muscle was 5.7 percent injected dose. The Muscle in the data set “Biodistribution in rats” (setting [3]) was 1.9 percent injected dose. In “Biodistribution in rats” (240 min post-injection), this molecule had a Gut of 32.1 percent injected dose. In “Biodistribution in rats” (setting [4]), the Blood came out at 1.7 percent injected dose, the Kidney came out at 6.2 percent injected dose and the Liver amounted to 6.3 percent injected dose. For the same molecule, in data set [1], the “Hypoxic/Oxic Ratio (H/O)” value is on record as 1.2 and the “Normalised Hypoxic Retention” value came out at 1.4.
For `COC(=O)C(CCCNC(C)(C)C(C)=NO)NC(C)(C)C(C)=NO` (stereo not shown) [Compound XVI, 4,9-diaza-3,3,10,10-tetramethyldodecan-2,11-dione dioxime-8-carboxylic acid methyl ester], in “Biodistribution in rats” (2 min post-injection), the Bladder/Urine came out at 0.3 percent injected dose, the Blood is reported as 17.8 percent injected dose, the Gut is 6.3 percent injected dose and the Kidney is 13.8 percent injected dose. In addition, the Liver in the data set “Biodistribution in rats” (2 min post-injection) is on record as 4.4 percent injected dose. For the same molecule, the Muscle in the data set “Biodistribution in rats” (setting [2]) stood at 24.4 percent injected dose. In addition, in the data set “Biodistribution in rats” (60 min post-injection), the Gut worked out at 6.5 percent injected dose and the Muscle is listed as 3.7 percent injected dose. Moreover, the Muscle in “Biodistribution in rats” (setting [3]) was found to be 2.3 percent injected dose. The Gut in the data set “Biodistribution in rats” (240 min post-injection) was 12.4 percent injected dose. In the data set “Biodistribution in rats” (setting [4]), this molecule had a Blood of 3.1 percent injected dose, a Kidney of 7.6 percent injected dose and a Liver of 2.5 percent injected dose. Also, in data set [1], the “Hypoxic/Oxic Ratio (H/O)” value turned out to be 4.0 and the “Normalised Hypoxic Retention” value turned out to be 0.22.
